# Source: patent publication US20250295711A1, “FOOD SUPPLEMENT” (FONTERRA CO-OPERATIVE GROUP LIMITED, priority 2022, published 2025)
# Marks after values point to notes of the source that are not given here.
# Assays:
# [1] = test system: brain and colon tissue; assay: HE staining of brain and colon tissues of CUMS rats; type: in vivo, rat; conditions: brain, FIG. 5
# From the text: Brain tissues included two regions from the hippocampus (Dentate Gyrus (DG) and CA1) and a region from the cortex (P2).
# Brain and colon tissue were stained using the HE method. Brain tissue included two regions from the hippocampus (Dentate Gyrus (DG) and CA1) and a region from the cortex (P2). The results are shown in FIG. 5 and reveal that for the control group, neurons in hippocampal regions (dentate gyrus (DG) and Ca1) and the cortex (P2) were normal, orderly, tightly packed cells. The cells had expected morphology, homogeneous cytoplasmic staining, and no increased interstitial or abnormal changes.
# For the colon tissue, control intestinal villi were arranged neatly, with normal cell morphology and no obvious damage was seen.
# [2] = test system: CUMS rats; assay: Elevated-plus maze test in CUMS rats; type: in vivo, rat; conditions: for Time in Closed Arms in Elevated Plus Maze, After intervention (x ± S) / Total Distance Travelled in Elevated Maze Test, After intervention (x ± S): after CUMS with intervention; for Time in Closed Arms in Elevated Plus Maze, After CUMS (x ± S) / Total Distance Travelled in Elevated Maze Test, After CUMS (x ± S): before intervention; for Time in Closed Arms in Elevated Plus Maze, Base line (x ± S) / Total Distance Travelled in Elevated Maze Test, Base line (x ± S): before CUMS and before intervention
# Experimental: (§1) A series of experiments were conducted using the chronic unpredictable mild stress (CUMS) rodent model. Rats were exposed daily to any two of the following mild physiological stresses selected at random: • 12 hours of water deprivation • 12 hours of food deprivation • 8 hours of damp sawdust • 24 hours of reversed light/dark cycle • 2 minutes of tail pinching • 1 hour of 60 Hz noise • 15 minutes of cage shaking • Swimming in 4° C. water for 5-10 minutes • 2 hours of restraining.
# (§2) Six groups of rats were assessed: • 1. Control rats: rats raised normally without stress treatments and without nutritional or drug interventions. • 2. CUMS rats: rats subjected to the CUMS protocol but without nutritional or drug interventions. • 3. CUMS HN001: rats subjected to the CUMS protocol and given HN001. • 4. CUMS HN019: rats subjected to the CUMS protocol and given HN019. • 5. CUMS HN001+HN019: rats subjected to the CUMS protocol given both HN001 and HN019. • 6.
# (§3) Baseline assessments were then conducted, including blood collection. For the next 40 days, rats in groups 2-6 were exposed to CUMS treatments to induce depression symptoms associated with stress and anxiety.
# (§4) Tests were then carried out to assess rat behaviours, such as the open field test and the elevated maze test (see FIG. 2). These are standard ways to measure rat stress and anxiety traits.
# [3] = test system: Adrenocorticotropic Hormone (ACTH); assay: Serum adrenocorticotropic hormone content in CUMS rats; type: in vivo, rat; conditions: for Serum Adrenocorticotropic Hormone (ACTH) Content, After intervention: after CUMS with intervention; for Serum Adrenocorticotropic Hormone (ACTH) Content, After CUMS: before intervention
# Experimental: as §1, §2, §3
# [4] = test system: 5-HT, DA, NE, Glu, GABA, HIAA, DOPAC, HVA; assay: Neurotransmitters and their metabolites in serum and brain of CUMS rats; type: in vivo, rat; conditions: FIG. 6
# From the text: The level of serum and brain 5-HT, DA, NE, Glu and GABA were detected at the end of the experiment (A, B, D, E, G, H, J, K, L). (C), (F) and (I) show the metabolites of monoamine neurotransmitters in brain. The results are presented as the mean±SEM (n=10). #P<0.05 compared with CUMS group.
# HIAA, DOPAC and HVA, as the metabolites of 5-HT, DA and NE, were increased in rat brains after CUMS stimulation.
# [5] = test system: IL-6; assay: IL-6 content in serum, brain and colon of CUMS rats; type: in vivo, rat; conditions: for IL-6 Content, Brain / IL-6 Content, Colon: end of experiment; for IL-6 Content, serum-after intervention: after CUMS with intervention; for IL-6 Content, serum-after CUMS: before intervention
# Experimental: as §1, §2, §3
# (§5) A series of blood markers were assessed.
# [6] = test system: TNF-α; assay: TNF-α content in serum, brain and colon of CUMS rats; type: in vivo, rat; conditions: for TNF-α Content, Brain / TNF-α Content, Colon: end of experiment; for TNF-α Content, serum-after intervention: after CUMS with intervention; for TNF-α Content, serum-after CUMS: before intervention
# Experimental: as §1, §2, §3, §5
# [7] = test system: intestinal microbiota; assay: 16S rRNA sequencing of faecal samples (gut microbiota) of CUMS rats; type: in vivo, rat; conditions: for CUMS-induced alterations of relative abundance at phylum level: Firmicutes, Bacteroidetes, Verrucomicrobias, Proteobacterias, Actinobacterias; for CUMS-induced changes at genus level: Lactobacillus, Eubacterium coprostanoligenes group, Lachnospiraceae-NK4A136-group; for CUMS-induced changes of relative abundance at family level: Ruminococcaceae, Lactobacillaceae, Lachnospiraceae; for Sobs, ACE, Chao1 and Shannon index (alpha-diversity): compared with CUMS group, FIG. 9; for Beta diversity, PCoA plot: in comparison with CUMS rats, FIG. 10A; for Firmicutes to Bacteroidetes ratio (F/B ratio): increased after CUMS stimulation
# Experimental: To evaluate whether probiotics, as well as CUMS, alter intestinal microbiota, 16S rRNA sequencing of faecal samples was performed. Alpha-diversity, as measured by richness (Sobs index, Chao1 index and ACE index; see FIGS. […]), and diversity (Shannon index; see FIG. 9 D), was decreased after CUMS. Beta diversity analysis was evaluated through PCoA to assess differences in microbial composition among six groups (FIG. 10A).
# [8] = test system: Corticotropin Releasing Hormone (CRH); assay: Serum corticotropin releasing hormone content in CUMS rats; type: in vivo, rat; conditions: for Serum Corticotropin Releasing Hormone (CRH) Content, After intervention: after CUMS with intervention; for Serum Corticotropin Releasing Hormone (CRH) Content, After CUMS: before intervention
# Experimental: as §1, §2, §3
# [9] = test system: CUMS rats; assay: Open field test in CUMS (chronic unpredictable mild stress) rats; type: in vivo, rat; conditions: for Total Distance Travelled in Open Field Test, After CUMS only (x ± S): after 40 days CUMS; for Total Distance Travelled in Open Field Test, After CUMS only (x ± S) / Vertical Movement (Number of Times Standing Up) in Open Field Test, After CUMS (x ± S): before intervention; for Vertical Movement (Number of Times Standing Up) in Open Field Test, After intervention (x ± S): after CUMS with intervention; for Total Distance Travelled in Open Field Test, After CUMS + intervention (x ± S): after further 40 days CUMS with intervention; for Total Distance Travelled in Open Field Test, Base line (x ± S) / Vertical Movement (Number of Times Standing Up) in Open Field Test, Base line (x ± S): before CUMS and before intervention
# Experimental: as §1, §2, §3, §4
# [10] = Body weight gain of CUMS rats; type: in vivo, rat; conditions: FIG. 3
# Experimental: as §1, §2, §3
# The reduced weight gain in rats exposed to CUMS was improved by administration of HN001, HN019, or both (FIG. 3). Also, there were no differences in weight gain between CUMS groups.
# [11] = test system: Cortisol; assay: Cortisol (HPA axis) after stress; type: in vivo; conditions: stress induced; no data shown
Substance,"Morphology of hippocampus (DG, CA1) and cortex (P2) [1]","Time in Closed Arms in Elevated Plus Maze, After intervention (x ± S) [2]","Total Distance Travelled in Elevated Maze Test, After intervention (x ± S) [2]","Time in Closed Arms in Elevated Plus Maze, After CUMS (x ± S) [2]","Total Distance Travelled in Elevated Maze Test, After CUMS (x ± S) [2]","Time in Closed Arms in Elevated Plus Maze, Base line (x ± S) [2] [s]","Total Distance Travelled in Elevated Maze Test, Base line (x ± S) [2] [Metres]","Serum Adrenocorticotropic Hormone (ACTH) Content, After intervention [3]","Serum Adrenocorticotropic Hormone (ACTH) Content, After CUMS [3]","Effects of CUMS on neurotransmitters (5-HT, DA, NE, Glu, GABA) and metabolites [4]","IL-6 Content, Brain [5]","IL-6 Content, Colon [5]","IL-6 Content, serum-after intervention [5]","IL-6 Content, serum-after CUMS [5]","TNF-α Content, Brain [6]","TNF-α Content, Colon [6]","TNF-α Content, serum-after intervention [6]","TNF-α Content, serum-after CUMS [6]",CUMS-induced alterations of relative abundance at phylum level [7],CUMS-induced changes at genus level [7],other results
Lactocaseibacillus rhamnosus strain HN001,CUMS-associated damage was largely reduced,220.28 ± 11.45^b Seconds,8.61 ± 1.63^b Metres,280.00 ± 9.58^a Seconds,3.17 ± 1.88^a Metres,230.69 ± 23.78,8.28 ± 0.81,3.12 ± 2.52^b pg/ml,5.85 ± 3.35^a pg/ml,able to reverse the effects of CUMS,20.44 ± 3.06v pg/ml,31.56 ± 9.00^b pg/ml,9.96 ± 4.10^b pg/ml,14.01 ± 5.98^a pg/ml,61.99 ± 5.17^b pg/ml,79.89 ± 11.48^b pg/ml,12.88 ± 4.62^b pg/ml,21.12 ± 6.40^a pg/ml,alleviated the phylum alterations,improved,"CUMS-induced changes of relative abundance at family level [7]: reversed the changes of family; Sobs, ACE, Chao1 and Shannon index (alpha-diversity) [7]: decreased; Beta diversity, PCoA plot [7]: marked differences; Firmicutes to Bacteroidetes ratio (F/B ratio) [7]: decreased the F/B ratio; Serum Corticotropin Releasing Hormone (CRH) Content, After intervention [8]: 2.38 ± 1.59^b pg/ml; Serum Corticotropin Releasing Hormone (CRH) Content, After CUMS [8]: 5.53 ± 2.77^a pg/ml; Total Distance Travelled in Open Field Test, After CUMS only (x ± S) [9]: 5.64 ± 2.10^a Metres; Vertical Movement (Number of Times Standing Up) in Open Field Test, After intervention (x ± S) [9]: 13.57 ± 4.39^b; Vertical Movement (Number of Times Standing Up) in Open Field Test, After CUMS (x ± S) [9]: 3.43 ± 2.88^a; Total Distance Travelled in Open Field Test, After CUMS + intervention (x ± S) [9]: 14.62 ± 7.97^b Metres; Total Distance Travelled in Open Field Test, Base line (x ± S) [9]: 23.43 ± 8.42 Metres; Vertical Movement (Number of Times Standing Up) in Open Field Test, Base line (x ± S) [9]: 19.67 ± 6.26; Reduced weight gain in rats exposed to CUMS [10]: improved; Cortisol level [11]: reduced closer to non-stressed control levels"
Bifidobacterium animalis subsp. lactis strain HN019,CUMS-associated damage was largely reduced,215.28 ± 17.98^b Seconds,7.91 ± 0.65^b Metres,288.83 ± 11.57^a Seconds,3.08 ± 2.21^a Metres,215.83 ± 23.30,9.35 ± 1.38,2.13 ± 1.88^b pg/ml,5.53 ± 3.43^a pg/ml,able to reverse the effects of CUMS,19.25 ± 4.78^b pg/ml,31.88 ± 7.83^b pg/ml,10.19 ± 4.47^b pg/ml,13.08 ± 4.30^a pg/ml,60.67 ± 6.65^b pg/ml,71.34 ± 10.46^b pg/ml,12.08 ± 3.68^b pg/ml,23.97 ± 3.69^a pg/ml,alleviated the phylum alterations,improved,"CUMS-induced changes of relative abundance at family level [7]: reversed the changes of family; Sobs, ACE, Chao1 and Shannon index (alpha-diversity) [7]: decreased; Beta diversity, PCoA plot [7]: marked differences; Firmicutes to Bacteroidetes ratio (F/B ratio) [7]: decreased the F/B ratio; Serum Corticotropin Releasing Hormone (CRH) Content, After intervention [8]: 2.47 ± 1.34^b pg/ml; Serum Corticotropin Releasing Hormone (CRH) Content, After CUMS [8]: 5.19 ± 3.48^a pg/ml; Total Distance Travelled in Open Field Test, After CUMS only (x ± S) [9]: 5.42 ± 3.11^a Metres; Vertical Movement (Number of Times Standing Up) in Open Field Test, After intervention (x ± S) [9]: 11.63 ± 4.90^b; Vertical Movement (Number of Times Standing Up) in Open Field Test, After CUMS (x ± S) [9]: 4.50 ± 3.42^a; Total Distance Travelled in Open Field Test, After CUMS + intervention (x ± S) [9]: 12.21 ± 2.54^b Metres; Total Distance Travelled in Open Field Test, Base line (x ± S) [9]: 24.65 ± 3.59 Metres; Vertical Movement (Number of Times Standing Up) in Open Field Test, Base line (x ± S) [9]: 19.62 ± 6.80; Reduced weight gain in rats exposed to CUMS [10]: improved; Cortisol level [11]: reduced closer to non-stressed control levels"
